Like-named read-outs stand apart in the source and are kept apart here.
Columns and labels:
[1] = biological target: human recombinant 5-HT2A receptor (Homo sapiens (Human), UniProt P28223); assay: 5-HT2A receptor binding inhibition test ([3H]-Ketanserin); conditions: Jump-In HEK cell membrane
Procedure: Test Example 1: 5-HT2A Receptor Binding Inhibition Test
(§1) (Each Experimental Condition)
Cell membrane: Jump-In HEK cell membrane (expressing human recombinant 5-HT2A receptor)
(§2) Assay buffer: Tris-HCl 50 mmol/L (pH 7.4) containing NaCl 120 mmol/L, MgCl2.6H2O 1 mmol/L, KCl 5 mmol/L, 0.1% BSA, and CaCl2 2 mmol/L
Radioactive ligand: [^3H]-Ketanserin around Kd value calculated by the following method
(§3) Non-specific ligand: Serotonin HCl
(§4) The Kd value was calculated when the lot of cell membrane was changed. In advance, 0.5 μL of a 1 mmol/L compound for non-specific binding calculation dissolved in DMSO or DMSO was dispensed into a microplate, and the cell membrane was diluted with an Assay buffer. The radioactive ligand solution was serially diluted and the count was confirmed with a liquid scintillator. Assay buffer containing diluted cell membrane was dispensed into a microplate at 50 μL/well. Then, the radioactive ligand solution was dispensed into a microplate at 50 μL/well, and the plate was sealed. It was allowed to stand at room temperature (25° C.) for 1.5 hours. During this period, 50 mmol/L Tris-HCl (pH 7.4) was dispensed into a GF/B UniFilter plate at 50 μL/well and allowed to stand at 4° C. for 1 hour or longer. After that, filtration was performed with Cell harvester (PerkinElmer). The radioactive ligand solution was dispensed into an empty well of the GF/B UniFilter plate at 10 μL/well. After the GF/B UniFilter plate was dried at room temperature, MicroScinti 20 was dispensed into the GF/B UniFilter plate at 50 μL/well, and the plate was sealed. The GF/B UniFilter plate was allowed to stand overnight at room temperature. The radioactivity of [^3H]-Ketanserin bound to the 5-HT2A receptor was measured using Microbeta2 (PerkinElmer) at a measurement time of 1 min/well. The Saturation curve was drawn from the measured value, and the Kd value was calculated from the slope of the Scatchard Plot.
(§5) (Binding Test of the Compound According to the Present Invention)
(§6) In advance, 0.5 μL of the compound solution dissolved in DMSO was dispensed into a microplate, and the cell membrane and the hot ligand were diluted with Assay buffer, respectively. Then, the Assay buffer containing the diluted cell membrane was dispensed into a microplate at 50 μL/well. Then, the radioactive ligand solution was dispensed into a microplate at 50 μL/well, and the plate was sealed. Then, it was allowed to stand at room temperature (25° C.) for 1.5 hours. During this period, 50 mmol/L Tris-HCl (pH 7.4) was dispensed into a GF/B UniFilter plate at 50 μL/well and allowed to stand at 4° C. for 1 hour or longer. After that, filtration was performed with Cell harvester (PerkinElmer). After the GF/B UniFilter plate was dried at room temperature, MicroScinti 20 was dispensed into the GF/B UniFilter plate at 50 μL/well, and the plate was sealed. The GF/B UniFilter plate was allowed to stand overnight at room temperature. The radioactivity of [^3H]-Ketanserin bound to the 5-HT2A receptor was measured using Microbeta2 (PerkinElmer) at a measurement time of 1 min/well. The non-specific binding was calculated from the radioactivity of [^3H]-Ketanserin in the presence of […] Serotonin HCl with the unlabeled ligand, and the total binding was calculated from the radioactivity of [^3H]-Ketanserin in the absence of the compound according to the present invention (Vehicle). Finally, the Ki value was calculated from the dose-response curve.
(§7) (The binding activity of the compound according to the present invention was calculated from the following binding inhibition rate (%).)
(§8) Inhibition rate (%)=[1−(c−a)/(b−a)]×100 • a; mean cpm of non-specific binding • b; mean cpm of total binding • c; cpm in the presence of the test compound

[2] = biological target: human recombinant 5-HT2C receptor (Homo sapiens (Human), UniProt P28335); assay: 5-HT2C receptor binding inhibition test ([3H]-Mesulergine)
Procedure: as §1
Cell membrane: Jump-In HEK cell membrane (expressing human recombinant 5-HT2C receptor)
as §2
Radioactive ligand: [^3H]-Mesulergine around Kd value calculated by the following method
as §3
as §4, with “[…]” for “4°”, “The radioactivity of [^3H]-Ketanserin bound to the 5-HT2A receptor was measured using Microbeta2 (PerkinElmer) at a measurement time of 1 min/well.” left out
as §5
as §6, with “37° C.” for “room temperature (25° C.)”, “2” for “1.5”, “The radioactivity of [^3H]-Ketanserin bound to the 5-HT2A receptor was measured using Microbeta2 (PerkinElmer) at a measurement time of 1 min/well.” left out, “[^3H]-Mesulergine” for “[^3H]-Ketanserin”
as §7, §8

[3] = Jump-In HEK cell membrane, [3H]-Mesulergine, read-out: h-5-HT2C Ki
[4] = read-out: human serotonin 5-HT2A receptor binding activity, Ki value
[5] = Jump-In HEK cell membrane, [3H]-Mesulergine, read-out: human serotonin 5-HT2C receptor binding inhibitory activity, Ki value

Chain of human recombinant 5-HT2C receptor (P28335 33-458): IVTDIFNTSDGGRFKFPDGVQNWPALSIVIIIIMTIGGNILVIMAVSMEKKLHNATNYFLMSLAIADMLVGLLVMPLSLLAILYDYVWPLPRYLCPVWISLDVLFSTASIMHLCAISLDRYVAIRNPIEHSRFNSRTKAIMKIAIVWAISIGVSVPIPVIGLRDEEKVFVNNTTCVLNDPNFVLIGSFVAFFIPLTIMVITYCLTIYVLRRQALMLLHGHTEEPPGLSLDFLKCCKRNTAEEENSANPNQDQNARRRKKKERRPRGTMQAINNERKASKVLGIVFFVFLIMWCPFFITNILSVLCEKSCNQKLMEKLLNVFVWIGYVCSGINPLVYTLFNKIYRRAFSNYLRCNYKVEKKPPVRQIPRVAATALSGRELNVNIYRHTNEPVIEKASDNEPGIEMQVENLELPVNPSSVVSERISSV
Chain of human recombinant 5-HT2A receptor (P28223 whole entry): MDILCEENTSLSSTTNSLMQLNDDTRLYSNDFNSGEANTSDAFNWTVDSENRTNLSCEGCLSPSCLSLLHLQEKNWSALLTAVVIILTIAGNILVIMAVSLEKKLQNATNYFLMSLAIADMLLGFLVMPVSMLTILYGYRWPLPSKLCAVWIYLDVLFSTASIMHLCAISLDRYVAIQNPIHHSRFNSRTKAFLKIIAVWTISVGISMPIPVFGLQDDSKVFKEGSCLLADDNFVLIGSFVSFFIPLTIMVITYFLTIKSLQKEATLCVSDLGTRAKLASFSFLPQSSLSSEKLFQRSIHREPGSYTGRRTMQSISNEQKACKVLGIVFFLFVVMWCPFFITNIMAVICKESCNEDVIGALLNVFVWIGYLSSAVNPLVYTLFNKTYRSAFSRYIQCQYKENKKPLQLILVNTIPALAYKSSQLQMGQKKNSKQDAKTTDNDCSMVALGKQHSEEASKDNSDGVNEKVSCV

| Ki ([1]; read-out: h-5-HT2A Ki) [nM] | Ki [2, 3] [nM] | Compound | Ki [1, 4] [nM] | Ki [2, 5] [nM] | Ki [2] [nM] |
| --- | --- | --- | --- | --- | --- |
| < 10 | 10 to 100 | CC(C)COc1ccc(CN(Cc2ccn(C)c2)C(=O)NC2CCN(C)CC2)cc1 [Compound I-040] | – | – | – |
| 10 to 100 | 10 to 100 | CC(C)COc1ccc(CN(Cc2nn(C)cc2Cl)C(=O)NC2CCN(C)CC2)cc1 [Compound I-041] | – | – | – |
| < 10 | 10 to 100 | COc1ccc(CN(Cc2ccc(F)cn2)C(=O)NC2CCN(C)CC2)cc1 [Compound I-042] | – | – | – |
| 10 to 100 | 10 to 100 | CC(C)Oc1ccc(CN(Cc2ccn(C)n2)C(=O)NC2CCN(C)CC2)cc1 [Compound I-047] | – | – | – |
| < 10 | < 10 | CC(C)COc1ccc(CN(Cc2ccn(C)n2)C(=O)N[C@H]2CCNC[C@H]2F)cc1 [Compound I-048] | – | – | – |
| < 10 | < 10 | CC(C)COc1ccc(CN(Cc2ccn(C)n2)C(=O)N[C@H]2CCN(C)C[C@H]2F)cc1 [Compound I-049] | – | – | – |
| < 10 | < 10 | CC(C)COc1ccc(CN(Cc2ccc(F)cn2)C(=O)N[C@H]2CCN(C)C[C@H]2F)cc1 [Compound I-050] | – | – | – |
| 100 to 5000 | 100 to 5000 | COc1ccc(CN(Cc2ccn(C)n2)C(=O)NC2CCN(C)CC2)nc1 [Compound I-051] | – | – | – |
| 10 to 100 | 10 to 100 | CC(C)COc1ccc(CN(Cc2ccn(C)n2)C(=O)N[C@H]2[C@@H]3CN(C)C[C@@H]32)cc1 [Compound I-058] | – | – | – |
| 10 to 100 | 100 to 5000 | CC(C)COc1ccc(CN(Cc2ccn(C)n2)C(=O)NCC2CN(C)C2)cc1 [Compound I-059] | – | – | – |
| 10 to 100 | 10 to 100 | CC(C)COc1ccc(CN(Cc2cnn(C)c2)C(=O)NC2CCN(C)CC2)cc1 [Compound I-060] | – | – | – |
| < 10 | 10 to 100 | CC(C)COc1ccc(CN(Cc2ccn(C)n2)C(=O)NC2CC3CC2CN3C)cc1 (stereo not shown) [Compound I-061] | – | – | – |
| 10 to 100 | 10 to 100 | COCCN1CCC(NC(=O)N(Cc2ccc(OCC(C)C)cc2)Cc2ccn(C)n2)CC1 [Compound I-063] | – | – | – |
| 10 to 100 | 100 to 5000 | CC(C)COc1ccc(CN(Cc2ccn(C)n2)C(=O)NC2(C)CCN(C)CC2)cc1 [Compound I-066] | – | – | – |
| < 10 | 10 to 100 | CCN1CCC(NC(=O)N(Cc2ccc(OCC(C)C)cc2)Cc2ccn(C)n2)CC1 [Compound I-069] | – | – | – |
| < 10 | 10 to 100 | CC(C)COc1ccc(CN(Cc2ccn(C)n2)C(=O)NC2CCN(CC3CCC3)CC2)cc1 [Compound I-076] | – | – | – |
| < 10 | 10 to 100 | Cc1ccc(CN(Cc2ccc(OCC(C)C)cc2)C(=O)OC2CCN(C)CC2)[nH]1 [Compound I-085] | – | – | – |

Second part, the compound before the results:

| Compound | Ki ([1]; read-out: h-5-HT2A Ki) [nM] | Ki [2, 3] [nM] | Ki [1, 4] [nM] | Ki [2, 5] [nM] | Ki [2] [nM] |
| --- | --- | --- | --- | --- | --- |
| CC(C)COc1ccc(CN(Cc2nccs2)C(=O)NC2CCN(C)CC2)cc1 [Compound I-025] | 10 to 100 | 10 to 100 | – | – | – |
| CN1CCC(NC(=O)N(Cc2ccc3c(c2)OCO3)Cc2ccn(C)n2)CC1 [Compound I-026] | 10 to 100 | 100 to 5000 | – | – | – |
| CC(C)COc1ccc(CN(Cc2ccn(C)n2)C(=O)N[C@@H]2CCNCC2(F)F)cc1 [Compound I-027] | 100 to 5000 | 100 to 5000 | – | – | – |
| CN1CCC(NC(=O)N(Cc2ccc(C3CC3)cc2)Cc2ccn(C)n2)CC1 [Compound I-029] | – | – | 4.33 | 20.5 | – |
| Cc1ccc(CN(Cc2ccc(OCC(C)C)cc2)C(=O)NC2CCN(C)CC2)nc1 [Compound I-031] | – | – | 0.709 | 1.89 | – |
| CC(C)COc1ccc(CN(Cc2ccc(C#N)cn2)C(=O)NC2CCN(C)CC2)cc1 [Compound I-032] | 10 to 100 | 100 to 5000 | – | – | – |
| CC(C)COc1ccc(CN(Cc2cc3ccccc3o2)C(=O)NC2CCN(C)CC2)cc1 [Compound I-033] | – | – | 4.01 | 28.9 | – |
| CC(C)COc1ccc(CN(Cc2cccs2)C(=O)NC2CCN(C)CC2)cc1 [Compound I-034] | < 10 | 10 to 100 | – | – | – |
| CC(C)COc1ccc(CN(Cc2cocn2)C(=O)NC2CCN(C)CC2)cc1 [Compound I-035] | < 10 | 10 to 100 | – | – | – |
| CC(C)COc1ccc(CN(Cc2ccn(C)n2)C(=O)CN2CCN(C)CC2)cc1 [Compound I-036] | 10 to 100 | 100 to 5000 | – | – | – |
| CC(C)COc1ccc(CN(Cc2ccn(C)n2)C(=O)N[C@H]2CCN(C)CC23CC3)cc1 [Compound I-037] | – | – | 4.7 | 2.11 | – |
| Cc1ccc(CN(Cc2ccn(C)n2)C(=O)NC2CCN(C)CC2)cc1 [Compound I-038] | 10 to 100 | 10 to 100 | – | – | – |
| Cc1cc(CN(Cc2ccc(OCC(C)C)cc2)C(=O)NC2CCN(C)CC2)no1 [Compound I-039] | 10 to 100 | 10 to 100 | – | – | – |
| CN1CCC(NC(=O)N(Cc2ccc(OC(F)(F)F)cc2)Cc2ccn(C)n2)CC1 [Compound I-046] | – | – | 3.09 | 14.5 | – |
| CC(C)COc1ccc(CN(Cc2ccn(C)n2)C(=O)N[C@H]2CCN(C)C[C@@H]2C)cc1 [Compound I-064] | < 10 | < 10 | – | – | – |
| CC(C)COc1ccc(CN(Cc2ccn(C)n2)C(=O)N[C@@H]2CCN(C)C[C@H]2C)cc1 [Compound I-065] | < 10 | < 10 | – | – | – |
| CC(C)COc1ccc(CN(Cc2ccn(C)n2)C(=O)NC23CCN(CC2)CC3)cc1 [Compound I-068] | 10 to 100 | – | – | – | 100 to 5000 |
| CC(C)COc1ccc(CN(Cc2ccn(C)n2)C(=O)N[C@H]2C[C@H]3CC[C@@H](C2)N3C)cc1 [Compound I-070] | 10 to 100 | – | – | – | 10 to 100 |
| Cc1nc(CN(Cc2ccc(OCC(C)C)cc2)C(=O)N[C@H]2CCN(C)C[C@H]2F)co1 [Compound I-078] | < 10 | < 10 | – | – | – |
| CC(C)COc1ccc(CN(Cc2ccn(C)n2)C(=O)NC2CCNCC2)cc1 [Compound I-079] | < 10 | < 10 | – | – | – |
| Cc1nc(CN(Cc2ccc(OCC(C)C)cc2)C(=O)N[C@H]2CCNC[C@H]2F)co1 [Compound I-080] | < 10 | < 10 | – | – | – |
